From patent US20260224555A1, “NEW PHENYLQUINOLONE COMPOUND HAVING ANTIBACTERIAL AND ANTI-CANCER FUNCTIONS AND PREPARATION THEREOF” (AlphaMol Science Ltd (Shanghai), priority 2022, published 2026)
Converted amounts (≈) assume the structure as drawn. Read-outs that look alike come from different tables or passages of the source. Values belong to the compound of their own block, whether it stands above or below them.

What was measured:
E. coli ATCC 25922 = test: In vitro antibacterial activity assay (MIC, broth dilution); type: cell-based; settings: Escherichia coli, ATCC25922
Source text: (§1) The method used to indicate the activity of the compounds in this example is to record the minimum inhibitory concentration (MIC) of the compounds against bacteria. The specific experimental method is as follows:
(§2) 1. The bacterial liquid cultured from a single colony was taken, and diluted into autoclaved CAMHB broth in a ratio of 1:1000, and mixed well.
(§3) 2. The prepared drug solution was filtered through a sterile 0.22 µm syringe filter and placed in a sterile EP tube for later use.
(§4) 3. A 96-well plate was taken, and 20 µL of drug solution ([…]) was added to each well in the first column of the 96-well plate. Then, 180 µL of diluted bacterial liquid was added and mixed well (Perform 3 replicate rows for each drug).
(§5) The same process was performed for the hydrochloride drug.
(§6) 4. 100 μL of diluted bacterial liquid was added to each well in the remaining 11 columns of the 96-well plate. Drugs are the same as above.
(§7) 5. Serial dilution: 100 μL of liquid was taken from the first column to the second column, mixed well, then 100 μL of liquid was taken from the second column to the third column, mixed well, and so on, sequentially diluting down to the last column (column 12). After mixing column 12 well, 100 μL of liquid thereof was discarded. The drug concentration in each well was decreased by two-fold serially (the concentration in the first well is 40 μg/mL).
(§8) 6. Blank CAMHB broth without added bacteria liquid was added to 3 blank wells in the 96-well plate, as negative control.
(§9) 7. The diluted bacterial liquid was added to 3 blank wells in the 96-well plate, as positive control.
(§10) 8. Incubated at 37° C. for 16 hours.
(§11) 9. Results reading: the minimum inhibitory concentration is the minimum drug concentration at which no bacterial growth is visible to the naked eye and without turbidity.

S. aureus ATCC 43300 = test: as above; type: cell-based; settings: Staphylococcus aureus, ATCC43300
Source text: as §1, §2, §3, §4, §5, §6, §7, §8, §9, §10, §11

[1] = tested on: Staphylococcus aureus ATCC43300; test: Resistance test of bacteria against compounds (serial induction, 21 days); type: cell-based
Protocol: This example provides a resistance test of bacteria against compounds, and the specific experimental method is as follows.
1. […] It was ensured that among the 6 final concentrations of the drug diluted into the wells, some were higher than the original MIC of the bacteria and some were lower than the original MIC of the bacteria.
2. Preparation of bacterial liquid: 10 mL of culture medium was taken and added to a sterilized plate using a pipette, then 100 µL of the above-mentioned passaged bacterial liquid was added, and mixed well for later use.
3. The above-mentioned diluted bacterial liquid was taken and added to a 96-well plate using a pipette, 180 μL per well, 3 wells per group, 6 groups in total. 20 μL of drug solution was added to each well (note: it is necessary to replace the pipette tip each time the drug is added), so that the final drug concentrations were […], respectively. The well with 200 μL of diluted bacterial liquid was used as the positive control well, and the well with 200 μL of culture medium was used as the negative control well.
The test object was Staphylococcus aureus (S. aureus).

Hela = test: In vitro anticancer activity test (MTT cell proliferation); type: cell-based; settings: Homo sapiens, average proliferation inhibition rate at the dosage of 40 μM, read-out: Hela Average inhibition rate %
Protocol: (§12) The anticancer activity of the compounds was tested using an in vitro cancer cell tests. The specific test method is as follows:
(§13) 1. Cell recovery and culture method: the cryovial was taken out from the liquid nitrogen container firstly, soaked directly in 37° C. warm water, and shaked from time to time to let it thaw as soon as possible. Then, the cryovial was transferred to a clean bench, and the lid was open. The cell suspension was taken into a centrifuge tube using a rubber-tipped dropper and more than 10 times the culture medium was added, mixed well, and centrifuged at 50 g for 5 minutes. Then, the supernatant was discarded, complete culture medium containing 10% fetal bovine serum was added to resuspend the cells, the cells was counted, the cell density was adjusted, and then inoculated into a culture bottle. The culture bottle was placed in a cell culture incubator at 5% CO2 and 37° C. The complete culture medium was replaced once the next day and the culture was continued.
(§14) 2. Cell passaging method: adherent cells in the logarithmic growth phase were placed in a clean bench, the original culture medium was discarded, and washed three times with 1×PBS. An appropriate amount of 0.25% trypsin digestion solution was added to moisten the cells, and then the trypsin solution was aspirated. The cells were placed in a cell culture incubator at 5% CO2 and 37° C. for digestion for a suitable time, and observed under a microscope. When 90% of the cells become round, the cells were moved immediately to the clean bench and complete culture medium was added to terminate digestion. Then, the cells were dislodged by pipetting up and down with a rubber-tipped dropper to single cells. The cells were counted, and the cell density was adjusted. The cells were inoculated into a suitable culture bottle or dish, added enough complete culture medium, and placed in a cell culture incubator at 5% CO2 and 37° C. for static culture.
(§15) For suspension cells in the logarithmic phase, the original culture medium was directly centrifuged at 50 g for 5 minutes, the supernatant was discarded, and the cells were washed once with PBS and centrifuged. After discarding the supernatant, the complete culture medium was added and the cells were dispersed using a rubber-tipped dropper. The cells are counted, and the cell density was adjusted. The cells were inoculated into appropriate culture bottles or culture dishes, and sufficient complete culture medium was added, and the cells were cultured in a cell culture incubator at 5% CO2 and 37° C.
(§16) 3. Cell proliferation assay: cells in good state in logarithmic phase were taken and appropriate amount of the cells was inoculated into 96-well plates according to the cell passage treatment method, with each well containing 180 μL complete medium. After the cells growth was recovered and the number of cells in each well is 5000±500, a drug was added for treatment.
(§17) After drug treatment during the experimental time, MTT solution with a final concentration of 0.5 mg/mL was added to each well, and placed in a cell culture incubator at 5% CO2 and 37° C. to allow a fully reaction of MTT with cells. After 4 hours, the solution in the 96-well plate was discarded, 100 µL of DMSO was added, and shaked to dissolve the formazan precipitated at the bottom of the plate, and the absorbance value of samples was detected at a wavelength of 570 nm using a microplate reader. Calculation method of cell viability rate:
Table 4 lists some compounds that have inhibitory effects against both of bacteria and cancer cells. In the table, the inhibitory effects against cancer cells are shown: the average proliferation inhibition rate (%) against cancer cells at the dosage of 40 μM.

[2] = tested on: Staphylococcus aureus ATCC43300; test: Systemic blood infection animal model; type: in vivo, mice; settings: 4 mg/kg oral gavage, 3 times a day, 7 days
Protocol: (2) Sterile phosphate buffered saline (PBS) was used to prepare a 1×10^7 CFU/mL Staphylococcus aureus ATCC43300 bacterial suspension for later use; the drug dosage required for mice was calculated for each group, and solutions of Example 34 and solvent for gavage (400 or 200 μL of Tween 80 was mixed with Example 34, grinded with an agate mortar until it became transparent, and then 0.5% sodium carboxymethyl cellulose solution was added to reach the required concentration and volume of the test drug) were prepared for later use.
(3) Except for the blank group, 100 μL of the bacterial suspension prepared in step 2 was injected into the tail vein of each mouse.
(4) 2 hours after the challenge, the drugs prepared in step 2 were administered by oral gavage according to the groups, 3 times a day, 200 uL each time, with an interval of 8 hours, for a total of 7 days. Mice were administered by oral gavage with the drug solvent for the model group and the blank group.
(5) 8 h after the last administration, mice were euthanized by cervical dislocation, disinfected with 75% alcohol, and then necropsied under sterile conditions. The kidneys and livers were harvested, observed and photographed, and the weight was recorded.
(6) The kidneys and livers were placed in a sterile glass grinder and sterile PBS in a volume ten times the weight of the organs was added and grinded. The grinding solutions were taken out, 10-fold serially diluted, smeared to a TSA solid culture medium, and incubated at 37° C. for 16 hours, then the colonies were counted. The number of colonies of the organs was calculated to evaluate the therapeutic effect.

[3] = tested on: human acute monocytic leukemia cell THP-1; test: In vitro anticancer activity test (MTT cell proliferation); type: cell-based
Protocol: as §12, §13, §14, §15, §16
as §17, with “rate: […]” for “rate:”

[4] = tested on: human acute myeloid leukemia cell MOLM-13; test: as above; type: cell-based
Protocol: as §12, §13, §14, §15, §16
as §17, with “rate: […]” for “rate:”

[5] = tested on: human liver cancer cell BLE-7402; test: as above; type: cell-based
Protocol: as §12, §13, §14, §15, §16
as §17, with “rate: […]” for “rate:”

[6] = tested on: human renal cancer cell OS-RC-2; test: as above; type: cell-based
Protocol: as §12, §13, §14, §15, §16
as §17, with “rate: […]” for “rate:”

E. feacium ATCC 700221 = test: In vitro antibacterial activity assay (MIC, broth dilution); type: cell-based; settings: Table 1; read-out: G+ bacteria MIC E. feacium ATCC 700221
Source text: as §1, §2, §3, §4, §5, §6, §7, §8, §9, §10, §11

A. baumannii ATCC 17978 = test: as above; type: cell-based; settings: Acinetobacter baumannii, ATCC17978; Table 2; read-out: G- bacteria MIC A. baumannii ATCC 17978
Source text: as §1, §2, §3, §4, §5, §6, §7, §8, §9, §10, §11

P. aeruginosa ATCC 27853 = test: as above; type: cell-based; settings: Pseudomonas aeruginosa, ATCC27853; Table 2; read-out: G- bacteria MIC P. aeruginosa ATCC 27853
Source text: as §1, §2, §3, §4, §5, §6, §7, §8, §9, §10, §11

[7] = Table 1, read-out: G+ bacteria MIC S. aureus ATCC 43300

SMILES: O=C(O)c1cn(C2CC2)c2cc(N3CCNCC3)c(F)cc2c1=O [Ciprofloxacin, reference compound]
- MIC (E. coli ATCC 25922; Table 4, read-out: E. coli ATCC 25922 MIC): ≤ 1 µg/mL
- MIC (S. aureus ATCC 43300; Table 4, read-out: S. aureus ATCC 43300 MIC): ≤ 1 µg/mL
- resistance of bacteria in the subsequent culture ([1]; S. aureus ATCC43300, 21 days): increased rapidly
- MIC at the end of the resistance experiment ([1]; period of 21 days, S. aureus ATCC43300): 128 µg/mL
- inhibition at 40 µM (Hela): ≤ 10%
- number of colonies of liver and kidney [2]: not apparent

SMILES: O=C(O)c1cn(C2CC2)c2cc(N3CCNCC3)c(F)cc2c1=O [Reference compound 2 (Ciprofloxacin), reference compound]
- IC50 [3]: > 100 µM
- IC50 [4]: > 100 µM
- IC50 [5]: > 100 µM
- IC50 [6]: > 100 µM

- MIC (E. feacium ATCC 700221): > 8 µg/mL
- MIC (S. aureus ATCC 43300; [7]): ≤ 0.1 µg/mL
SMILES: CCCCCNS(=O)(=O)c1ccc(-c2c(F)cc3c(=O)c(C(=O)O)cn(C4CC4)c3c2Cl)cn1 [Example 20, 8-chloro-1-cyclopropyl-6-fluoro-4-oxo-7-(6-(N-pentylaminosulfonyl)pyridine-3-yl)-1,4-dihydroquinolin-3-carboxylic acid]

- MIC (A. baumannii ATCC 17978): 0.1 to 1 µg/mL (≈ 0.223 to 2.23 µM)
- MIC (E. coli ATCC 25922; Table 2, read-out: G- bacteria MIC E. coli ATCC 25922): ≤ 0.1 µg/mL
- MIC (E. feacium ATCC 700221): 1 to 8 µg/mL (≈ 2.23 to 17.9 µM)
- MIC (P. aeruginosa ATCC 27853): 0.1 to 1 µg/mL (≈ 0.223 to 2.23 µM)
- MIC (S. aureus ATCC 43300; [7]): ≤ 0.1 µg/mL
SMILES: O=C(O)c1cn(C2CC2)c2nc(-c3ccc(S(=O)(=O)NCCO)cc3)c(F)cc2c1=O [Example 18, 1-cyclopropyl-6-fluoro-7-(4-(N-(2-hydroxyethyl)aminosulfonyl)phenyl)-4-oxo-1,4-dihydro-1,8-naphthyridine-3-carboxylic acid]
